Data published in a melting point compilation (Tetko et al.; mined from patent text by program, amines drawn as free bases though some values may be those of a salt).

Row | SMILES | melting point
1 | COc1cc(COc2nn(-c3ccccc3)cc2CC2SC(=O)N(C)C2=O)ccc1OCc1nc(-c2ccco2)oc1C (configuration not stated) | 111 to 112 °C
2 | O=C1Nc2cc(F)ccc2C1c1ncnc2nn(C3CCCCC3)cc12 (configuration not stated) | 297 to 300 °C
3 | O=C=Nc1ccc(Oc2cccc(Cl)n2)cc1 | 96 to 97 °C
4 | Cc1cc(C)c(C(=O)COc2ccc(C(=O)C(=O)O)cc2)c(C)c1 | 144 to 145 °C
5 | O=C(O)c1cc(Cl)ccc1Nc1ccc(OCc2ccccc2)cc1 | 189 to 191 °C
6 | O=C(Nc1ccc(Cl)cc1)C(F)(F)C(O)(Cn1cncn1)c1ccc(F)cc1F (configuration not stated) | 86 to 87 °C
7 | Cc1c(C)c2c(c(C)c1NC(=O)CC(C)(C)C)C(c1ccccc1)C(C)(C)O2 (configuration not stated) | 214 to 215 °C
8 | Oc1cccc(Nc2nnc(Cc3ccncc3)c3ccccc23)c1 | 217 to 219 °C
9 | FC(F)(F)c1ccc(Oc2ccc3nnsc3c2)c(Cl)c1 | 72 to 73 °C
10 | CC(C)n1cc(-c2nc(C(N)=O)c(N)nc2-c2ccccc2F)ccc1=O | 252 °C
11 | Cc1csc2c(CSc3nc4ccccc4[nH]3)nccc12 | 160 to 162 °C
12 | Cc1cc(-c2ccc(OC(F)(F)F)cc2)cc(-c2cccc(-c3cccc(S(=O)(=O)NC(C)(C)C)c3)n2)n1 | 148 °C
13 | COC(=O)c1ccsc1N=C=S | 63 to 65 °C
14 | O=C(NCCCc1ccncc1)N(CCC12CC3CC(CC(C3)C1)C2)Cc1cccs1 | 142 to 144 °C
15 | Cc1nc2cnccc2n1-c1ccc(CO)cc1 | 154 to 156 °C
16 | OCc1nccc(N2CCCCC2)c1Cl | 68 to 70 °C
17 | COc1cc(C(=O)NC2CN(C)C2)ccc1Nc1ncc2c(n1)N(C1CCCC1)CC(F)(F)C(=O)N2C | 157 to 162 °C
18 | O=C1c2ccc(F)cc2C(=O)N1c1ccc(Cl)cc1F | 122 to 123 °C
19 | NC1CCCCC1N1CCC(Cc2ccc(Cl)cc2)CC1 (configuration not stated) | 69.1 to 70.4 °C
20 | O=C1Cc2ccnc(N3CCNCC3)c2N1 | 200 to 204 °C
21 | CCOC(=O)c1cccc(CNC(=O)CCCCCNC(=O)OC(C)(C)C)c1O | 120 to 121 °C
22 | CC(Cl)C(=O)c1ccc2c(c1)CCC(=O)N2 (configuration not stated) | 205 to 206 °C
23 | O=C(Nc1nc(-c2ccco2)c(-c2ccncc2)s1)c1ccn(Cc2ccccc2)c(=O)c1 | 244 to 248 °C
24 | COC(=O)c1nc(N)sc1CCC(C)C | 108 to 110 °C
25 | Cc1c(-c2ccccc2)oc2c(C#N)cccc12 | 86 to 87 °C
26 | CN1CCOc2ccc(/C=C/C(=O)O)cc21 | 190 °C

Row | SMILES | melting point
27 | COC(=O)C1=Cc2cccc(OCc3ccccc3)c2CC1 | 64 to 67 °C
28 | O=c1oc(-c2ccc(-c3nc4ccccc4c(=O)o3)cc2)nc2ccccc12 | > 300 °C
29 | O=C(Nc1ccccc1F)N1CCc2cc(S(=O)(=O)N3CCN(c4cccc(Cl)c4)CC3)ccc21 | 174 to 175 °C
30 | O=C(O)/C=C/c1ccc(OCCN2CCCC2)cc1 | 183 °C
31 | CC(C)N1CCC(N2CCN(CCCN3CCOCC3)C2=C(C#N)C#N)CC1 | 109 to 110 °C
32 | CCN(C)C(=O)N(C)C(=O)Nc1ccccc1 | 88.5 to 90.5 °C
33 | COCCNC(=O)c1ccc(SC)c(N)c1 | 66 to 68 °C
34 | O=C(C=Cc1ccc(O)c([N+](=O)[O-])c1)N(c1ccccc1)c1ccccc1 | 197 to 198 °C
35 | N#C/C=C/c1coc2ccccc2c1=O | 192 to 194 °C
36 | COCc1ccsc1-c1nsc2ccc(-n3c(=O)cc(C(F)(F)F)n(C)c3=O)cc12 | 131 to 133 °C
37 | COc1ccc(C2CNC(=O)C2)cc1OCC(O)CN1CCN(c2ccccc2)CC1 (configuration not stated) | 143 to 144 °C
38 | Cc1nc(N2CCCC2)c2ccc(Br)cc2n1 | 120 to 122 °C
39 | CCn1cc(-c2ccc(F)c(C)c2)nc1COCc1ccccc1 | 200 °C
40 | CC(C)(C)OC(=O)c1ccc(C=Cc2ccc(C(=O)OC(C)(C)C)cc2)cc1 | 126 to 127 °C
41 | O=S(=O)(Nc1ccc(OCc2ccc3ccccc3n2)cc1)c1ccc(Cl)cc1 | 125 °C
42 | Cc1cc(NC2=NCCN2)n(CCC(C)C)n1 | 104 to 106 °C
43 | c1ccc2c(NCCN3CCOCC3)noc2c1 | 79 to 80 °C
44 | Cc1cc(C(=O)NC2CC2)ccc1N1CCNCC1 | 172 to 173 °C
45 | CSc1ccccc1-c1cc2c(ccn2C)c2c1C(=O)NC2=O | 272 to 274 °C
46 | Nc1nc2ccccc2c2c1nc(C1CCOC1)n2CCOc1ccccc1 (configuration not stated) | 236 °C
47 | O=C(O)C1(C(=O)O)C=CC=CN1 | 186 °C
48 | NOP(=O)(c1ccccc1)c1ccccc1 | 104 °C
49 | COc1ccc(C=CC(=O)c2c(OC)cc(OC)cc2OC(=O)CCCC(=O)O)cc1 | 131 to 132 °C
50 | Cc1nc(N2CCN(Cc3ncoc3-c3ccccc3)C2=O)sc1C(=O)NCc1cccnc1 | 78 to 81 °C
51 | COc1nc2cc(Cl)c(Cl)c(C(=O)O)c2nc1OC | 230 to 232 °C
52 | COc1ccc(-c2ocnc2-c2cc(OC)c(O)c(OC)c2)cc1N | 101 to 102 °C

Row | SMILES | melting point
53 | Cc1nc(-c2ccccc2)nc(-c2cccc([N+](=O)[O-])c2)c1CC#N | 219 to 221 °C
54 | Cc1nc(-c2ccccc2F)cn1-c1ccc(COc2ncc(C(F)(F)F)cc2Cl)cc1 | 109 °C
55 | Cc1cccc2c1nc(COc1ccc(Cl)cc1)n2CCC(C)C(=O)Cl (configuration not stated) | 140 to 142 °C
56 | O=C(OCCN1CCCCC1)c1c[nH]c2ccccc12 | 123 to 125 °C
57 | COc1cc(OC)nc(NC(=O)NS(=O)(=O)c2cccc3sc(C)nc23)n1 | 187 to 194 °C
58 | CC(C)(C)OC(=O)N1CCC(OCc2ccccc2)C1CC(O)Cn1cnc2cccc(F)c2c1=O (configuration not stated) | 219 °C
59 | CC(C)n1nc(-c2sc(Nc3cccc4ccccc34)nc2-c2ccccc2)ccc1=O | 239 to 240 °C
60 | Cc1cc(SCc2ccc(-c3ccccc3)cc2)ccc1OCC(=O)O | 138 °C
61 | Cc1nc2c(c(=O)[nH]1)-c1cc(S(=O)(=O)Nc3ccc(C(N)=O)cc3)ccc1CC2 | 190 °C
62 | COc1ccc2cc([C@H](C)C(=O)OCC(=O)N(C)CC(=O)OC(C)(C)C)ccc2c1 | 103 to 104 °C
63 | COCc1c(C(=O)OC(C)C)ncc2[nH]c3cccc(Oc4ccccn4)c3c12 | 188 to 189 °C
64 | N#CNC=Nc1ccc(-c2cc[nH]n2)cc1 | 223 to 224 °C
65 | C#CCN(C(=O)c1cc(C)oc1C(F)(F)F)S(=O)(=O)c1cccc(Cl)c1 | 70 to 72 °C
66 | Cc1[nH]c(C(=O)N2CCC(O)CC2)c(C)c1-c1nc2ccc(C(=O)c3ccccc3)cc2[nH]1 | 288 to 290 °C
67 | CCOC(=O)CC(=O)c1ccnc(F)c1 | 66 to 67 °C
68 | COc1ccc(C(=O)Nc2cc(NC(=O)c3cccc(N)c3)ccc2C)cc1OC | 179 to 180 °C
69 | CN1C(=O)c2cc(Cl)ccc2N(C(=O)CCN2CCCC2)c2ccccc21 | 118 to 120 °C
70 | O=C(CCCCCCOc1ccc(OCc2ccccc2)cc1)c1nnc(COCc2ccccc2)o1 | 95 to 97 °C
71 | Cc1ccc(-c2nc(C)nn2-c2ccc(S(N)(=O)=O)cc2)cc1 | 248 to 249 °C
72 | Cc1nc(C)c(Cl)c(NCc2ccc(OCc3ccccc3)c(OCC(F)(F)F)c2)n1 | 135 to 138 °C
73 | CC(NC(=O)Cc1cc(F)cc(F)c1)C(=O)NC1C(=O)NC(F)c2ccccc21 (configuration not stated) | 195 to 200 °C
74 | CCC(=O)N(C)c1cccc(-c2ccnc3c(C(=O)c4cccs4)cnn23)c1 | 186 to 187 °C
75 | CC1CC(=O)NN=C1c1ccc(N2CCC(CN3C(=O)c4ccccc4C3=O)CC2)c([N+](=O)[O-])c1 (configuration not stated) | 256 to 258 °C
76 | Clc1ccc(Nc2nnc(-c3ccc(-c4ccccc4)cc3)s2)cc1Cl | 306 °C
77 | O=C(O)CCc1cnoc1-c1cc(Cl)cc(Cl)c1 | 143 to 144 °C
78 | CC(=O)c1ccc(-c2ccc(F)cc2)c(N)c1 | 88 to 91 °C

Row | SMILES | melting point
79 | CSc1ccc2c(C3=C(c4cn(C)c5cc([N+](=O)[O-])ccc45)C(=O)NC3=O)cn(C)c2c1 | 273 to 275 °C
80 | CCc1ccc2nc(C)[nH]c(=O)c2c1 | 165 to 185 °C
81 | CNc1cc2c(cc1C)c(=O)c(C(=O)O)cn2-c1cc(N)c(F)cc1F | > 280 °C
82 | COc1ccc2c(Nc3ccc(C)c(O)c3)c(C#N)cnc2c1 | > 250 °C
83 | Cc1ccc(S(=O)(=O)C(CCl)Sc2ccc(Br)cc2)cc1 (configuration not stated) | 82.5 to 84 °C
84 | CCCCCCCCCCCCCCCCCC(=O)NC(C)c1c[nH]c(CCCCCCCCCCCCCCCCC)n1 (configuration not stated) | 76 to 82 °C
85 | Cc1ccc2nc(-c3ccc(C=O)cc3)cn2c1 | 210 to 211 °C
86 | CCOC(=O)c1csc2c1N(O)CCC2 | 252 to 253 °C
87 | CCOC(=O)c1cc2cccnc2nc1C(=O)OCC | 83 to 85 °C
88 | CNC(=NC#N)NCCSCc1csc(NC(=N)N)n1 | 159 to 161 °C
89 | CCc1nc2ccc(F)cc2c(OC(=O)C2CC2)c1C | 86 to 87 °C
90 | CN(C)CCNC(=O)CCn1c(-c2ccc(Cl)cc2)nc2cccnc21 | 142 to 143 °C
91 | NC(CO)(CCCc1ccc(Sc2cccc(OCc3ccccc3)c2)cc1Cl)CCP(=O)(O)O (configuration not stated) | 193 to 196 °C
92 | CCOC(=O)Cc1sc(Sc2cc(C(=O)OCC)nc3c(OC)cccc23)nc1C | 120 to 121 °C
93 | Cc1ccc(Nn2c(-c3ccccc3)c(C)[nH]c2=S)cc1C | 228 °C
94 | Cc1nc(CCO)c2n1-c1ccc(Cl)cc1C(c1ccccc1Cl)=NC2 | 170 to 171 °C
95 | CC(C)(C)c1ccc(CNC(=O)NCc2ccc(NS(C)(=O)=O)c(F)c2)cc1 | 95 °C
96 | COC(=O)[C@@H]1C[C@H](C(=O)OC(C)(C)C)N(C(=O)CNC(=O)Nc2ccc(Cl)cc2)[C@@H]1c1ccccc1 (racemic) | 125 °C
97 | FC(F)(F)c1cccc(-c2cc(CCl)on2)c1 | 33 to 37 °C
98 | COC1(Cl)C=C(F)C=C(C=O)C1 (configuration not stated) | 59 to 61 °C
99 | O=c1c2ccccc2sn1SCc1ccccc1 | 111 to 112 °C
100 | N#Cc1nc(Cl)ccc1[N+](=O)[O-] | 115 to 117 °C
101 | Fc1cc(F)c(-c2c(F)nnc(F)c2-c2ccc(Br)cc2)c(F)c1 | 132 to 133 °C
102 | O=C(Cl)c1cc(Br)c(C(=O)Cl)cc1Br | 80 to 82 °C
